From ChEMBL document CHEMBL5352406 (Eur J Med Chem, 2022)
pIC50: −log10 of the molar value.

Columns and labels:
CDK2/Cyclin A2 = CDK2/Cyclin A2 (Homo sapiens, UniProt P24941); assay type: protein-complex assay
Description: Inhibition of human full length CDK2/CyclinA2 by ADP-Glo kinase assay

HCT-116 = assay: Antiproliferative activity against human HCT-116 cells assessed as cell growth inhibition after 72 hrs by MTT assay; assay type: functional
SW480 = assay: Antiproliferative activity against human SW480 cells assessed as cell growth inhibition after 72 hrs by MTT assay; assay type: functional
A549 = assay: Antiproliferative activity against human A549 cells assessed as cell growth inhibition after 72 hrs by MTT assay; assay type: functional
MCF7 = assay: Antiproliferative activity against human MCF7 cells assessed as cell growth inhibition after 72 hrs by MTT assay; assay type: functional
Acetylcholinesterase = Acetylcholinesterase (Electrophorus electricus, UniProt O42275); assay: Inhibition of electric eel AChE using acetylthiocholine […] as substrate for 20 mins by Ellman's method
Cholinesterase = Cholinesterase (Equus caballus, UniProt P81908); assay: Inhibition of equine serum BuChE using […] as substrate for 20 mins by Ellman's method
[1] = Selectivity index, ratio of IC50 for electric eel AChE to IC50 for CDK9/CyclinT1 (unknown origin)
[2] = Selectivity index, ratio of IC50 for equine serum BuChE to IC50 for CDK9/CyclinT1 (unknown origin)
[3] = Selectivity index, ratio of IC50 for human full length CDK2/CyclinA to IC50 for CDK9/CyclinT1 (unknown origin)
CDK9/cyclin T1 = CDK9/cyclin T1 (Homo sapiens, UniProt P50750)
Description: Inhibition of CDK9/CyclinT1 (unknown origin) by ADP-Glo kinase assay

[4] = biological target: CDK9/cyclin T1 (Homo sapiens) (UniProt O60563+P50750); assay: Inhibition of CDK9/CyclinT1 (unknown origin) at 500 nM by ADP-Glo kinase assay relative to control; assay type: protein-complex assay
[5] = biological target: CDK2/Cyclin A2 (Homo sapiens) (UniProt P24941+P20248); assay: Inhibition of human full length CDK2/CyclinA2 at 500 nM by ADP-Glo kinase assay relative to control; assay type: protein-complex assay

Sequence of CDK9/cyclin T1 (O60563 whole entry): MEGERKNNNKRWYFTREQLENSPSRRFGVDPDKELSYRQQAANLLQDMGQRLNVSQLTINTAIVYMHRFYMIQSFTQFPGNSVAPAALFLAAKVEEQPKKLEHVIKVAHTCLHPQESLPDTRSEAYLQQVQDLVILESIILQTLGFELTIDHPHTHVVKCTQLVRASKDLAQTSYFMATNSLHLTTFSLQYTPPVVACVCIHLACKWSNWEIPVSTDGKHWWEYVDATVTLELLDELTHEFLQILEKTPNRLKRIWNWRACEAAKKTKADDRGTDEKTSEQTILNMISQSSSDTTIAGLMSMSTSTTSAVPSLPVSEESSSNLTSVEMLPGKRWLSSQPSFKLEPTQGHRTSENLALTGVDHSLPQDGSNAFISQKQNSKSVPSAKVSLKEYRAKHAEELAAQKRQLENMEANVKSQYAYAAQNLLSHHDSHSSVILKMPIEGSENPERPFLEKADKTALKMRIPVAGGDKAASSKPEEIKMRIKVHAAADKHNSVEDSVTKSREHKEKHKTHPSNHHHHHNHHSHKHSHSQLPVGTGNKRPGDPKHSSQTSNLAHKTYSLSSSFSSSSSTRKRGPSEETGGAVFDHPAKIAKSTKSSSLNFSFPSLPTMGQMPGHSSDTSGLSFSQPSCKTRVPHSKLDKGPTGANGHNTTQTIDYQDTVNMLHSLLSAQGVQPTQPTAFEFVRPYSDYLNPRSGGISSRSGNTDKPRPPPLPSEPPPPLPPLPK
Sequence of CDK9/cyclin T1 (P50750 whole entry): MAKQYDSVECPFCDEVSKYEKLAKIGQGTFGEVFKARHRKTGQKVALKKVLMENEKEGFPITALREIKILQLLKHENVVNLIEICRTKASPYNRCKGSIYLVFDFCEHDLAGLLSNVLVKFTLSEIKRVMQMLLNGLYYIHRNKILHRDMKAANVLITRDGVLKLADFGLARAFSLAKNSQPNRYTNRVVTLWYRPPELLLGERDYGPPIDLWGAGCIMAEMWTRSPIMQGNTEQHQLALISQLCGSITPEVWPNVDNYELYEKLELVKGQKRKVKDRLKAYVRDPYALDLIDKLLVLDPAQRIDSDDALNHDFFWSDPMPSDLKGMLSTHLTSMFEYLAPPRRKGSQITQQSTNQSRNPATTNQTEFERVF
Sequence of Acetylcholinesterase (O42275 whole entry): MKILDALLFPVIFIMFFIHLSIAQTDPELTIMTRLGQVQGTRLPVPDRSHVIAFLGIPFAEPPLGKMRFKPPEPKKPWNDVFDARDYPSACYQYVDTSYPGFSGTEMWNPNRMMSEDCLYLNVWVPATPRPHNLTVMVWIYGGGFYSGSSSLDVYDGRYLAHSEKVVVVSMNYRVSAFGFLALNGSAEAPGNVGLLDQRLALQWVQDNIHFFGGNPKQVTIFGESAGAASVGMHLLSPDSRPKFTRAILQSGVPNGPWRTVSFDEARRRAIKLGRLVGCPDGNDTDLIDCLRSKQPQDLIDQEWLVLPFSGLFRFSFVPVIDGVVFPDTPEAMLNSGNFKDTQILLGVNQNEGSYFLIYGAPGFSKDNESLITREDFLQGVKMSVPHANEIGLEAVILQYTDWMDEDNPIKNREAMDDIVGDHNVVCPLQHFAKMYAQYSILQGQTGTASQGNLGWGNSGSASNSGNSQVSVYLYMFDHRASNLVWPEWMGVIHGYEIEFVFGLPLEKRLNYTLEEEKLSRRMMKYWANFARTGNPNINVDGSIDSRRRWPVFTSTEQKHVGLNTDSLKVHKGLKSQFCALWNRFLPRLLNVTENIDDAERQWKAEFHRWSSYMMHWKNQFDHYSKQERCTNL
Sequence of Cholinesterase (P81908 whole entry): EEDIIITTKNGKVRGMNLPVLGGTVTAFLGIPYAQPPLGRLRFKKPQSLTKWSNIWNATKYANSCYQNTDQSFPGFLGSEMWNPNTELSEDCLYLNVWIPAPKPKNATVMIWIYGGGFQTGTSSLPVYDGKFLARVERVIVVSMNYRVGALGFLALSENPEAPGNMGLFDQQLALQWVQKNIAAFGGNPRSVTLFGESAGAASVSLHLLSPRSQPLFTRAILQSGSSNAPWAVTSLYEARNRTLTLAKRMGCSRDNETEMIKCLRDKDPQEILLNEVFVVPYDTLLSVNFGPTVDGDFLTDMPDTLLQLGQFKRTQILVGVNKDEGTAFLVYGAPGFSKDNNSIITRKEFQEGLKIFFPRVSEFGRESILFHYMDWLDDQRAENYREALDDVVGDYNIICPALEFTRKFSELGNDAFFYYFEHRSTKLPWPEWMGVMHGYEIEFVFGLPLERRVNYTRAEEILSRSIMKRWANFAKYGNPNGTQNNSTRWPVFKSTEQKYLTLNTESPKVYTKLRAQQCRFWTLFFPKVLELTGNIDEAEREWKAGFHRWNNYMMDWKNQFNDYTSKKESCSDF

SMILES	pIC50 (CDK2/Cyclin A2)	GI50 (HCT-116)	GI50 (SW480)	GI50 (A549)	GI50 (MCF7)	pIC50 (Acetylcholinesterase)	pIC50 (Cholinesterase)	Selectivity Index [1]	Selectivity Index [2]	Selectivity Index [3]	pIC50 (CDK9/cyclin T1)	inhibition [4]	inhibition [5]
N[C@H]1CCN(c2c3c(nc4ccc(-c5ccnc(NC(=O)C6CCC6)c5)cc24)CCCCC3)C1	7.97	0.086 µM	0.08 µM	0.077 µM	0.168 µM	4.75	5.93	4290	288	3	8.39	–	–
N[C@H]1CCN(c2c3c(nc4ccc(-c5cc(NC(=O)C6CC6)ncn5)cc24)CCCCC3)C1	7.83	0.201 µM	0.316 µM	0.166 µM	0.161 µM	5.14	5.41	1250	669	3	8.24	–	–
CN(C)S(=O)(=O)c1ccc(Nc2cc(-c3ccc4nc5c(c(N6CC[C@H](N)C6)c4c3)CCCCC5)ccn2)cc1	< 6.30	2.18 µM	1.81 µM	1.99 µM	3.11 µM	4.45	5.98	346	10	0.5	6.99	–	–
N[C@@H]1CCN(c2c3c(nc4ccc(-c5ccnc(NC(=O)C6CC6)c5)cc24)CCCCC3)C1	8.19	0.039 µM	0.049 µM	0.041 µM	0.08 µM	–	5.32	–	2560	3	–	–	–
N[C@H]1CCN(c2c3c(nc4ccc(-c5ccnc(NC(=O)C6CCCCC6)c5)cc24)CCCCC3)C1	7.23	0.262 µM	1.26 µM	0.308 µM	0.404 µM	4.68	5.78	9550	763	27	8.66	–	–
N[C@H]1CCN(c2c3c(nc4ccc(-c5ccncc5)cc24)CCCCC3)C1	< 6.30	0.272 µM	0.458 µM	0.393 µM	0.424 µM	4.61	6.37	2970	51	–	8.08	–	–
N[C@H]1CCN(c2c3c(nc4ccc(-c5ccnc(F)c5)cc24)CCCCC3)C1	< 6.30	3.98 µM	4.69 µM	8.44 µM	7.08 µM	4.67	5.65	–	–	–	–	73%	–
N[C@H]1CCN(c2c3c(nc4ccc(-c5ccnc(NC(=O)C6CCC6)c5)cc24)CCCCCC3)C1	8.11	0.046 µM	0.118 µM	0.109 µM	0.108 µM	4.58	6.16	8920	235	3	8.53	–	–
N[C@H]1CCN(c2c3c(nc4ccc(-c5ccnc(Nc6ccc(S(=O)(=O)N7CCCC7)cc6)c5)cc24)CCCCC3)C1	–	6.02 µM	3.52 µM	2.69 µM	3.24 µM	< 4.30	5.30	–	–	–	< 6.30	–	74.8%
N[C@H]1CCN(c2c3c(nc4ccc(-c5ccnc(Nc6ccc(S(=O)(=O)N7CCOCC7)cc6)c5)cc24)CCCCC3)C1	–	2.26 µM	3.68 µM	2.61 µM	3.18 µM	4.60	5.74	–	–	–	–	62.4%	89.5%
N[C@H]1CCN(c2c3c(nc4ccc(-c5ccnc(NC(=O)C6CC6)n5)cc24)CCCCCC3)C1	7.73	0.014 µM	0.018 µM	0.064 µM	0.071 µM	4.68	5.56	7200	948	7	8.54	–	–
N[C@H]1CCN(c2c3c(nc4ccc(-c5ccccc5)cc24)CCCCC3)C1	< 6.30	5.88 µM	2.93 µM	9.53 µM	4.06 µM	4.72	6.88	–	–	–	< 6.30	–	–
N[C@H]1CCN(c2c3c(nc4ccc(-c5ccnc(NC(=O)C6CCCC6)c5)cc24)CCCCC3)C1	7.75	0.134 µM	0.065 µM	0.083 µM	0.21 µM	4.77	5.93	6180	425	6	8.56	–	–
N[C@H]1CCN(c2c3c(nc4ccc(-c5ccnc(NC(=O)C6CC6)n5)cc24)-c2ccccc2CCC3)C1	< 6.30	> 10 µM	9.53 µM	9.47 µM	6.33 µM	< 4.30	4.90	–	–	–	–	72.7%	–
N[C@H]1CCN(c2c3c(nc4ccc(-c5nccc(NC(=O)C6CC6)n5)cc24)CCCCC3)C1	< 6.30	> 3 µM	> 3 µM	> 10 µM	8.39 µM	4.75	5.60	–	–	–	< 6.30	–	–
N[C@H]1CCN(c2c3c(nc4ccc(-c5ccnc(Nc6ccc(S(=O)(=O)N7CCNCC7)cc6)c5)cc24)CCCCC3)C1	–	5.83 µM	7.8 µM	7.53 µM	11.6 µM	4.71	5.55	–	–	–	< 6.30	–	84%
N[C@H]1CCN(c2c3c(nc4ccc(-c5ccnc(NC(=O)C6CC6)c5)cc24)CCCC3)C1	–	0.029 µM	0.328 µM	–	0.109 µM	–	–	–	–	–	8.65	–	–
N[C@H]1CCN(c2c3c(nc4ccc(-c5cccnc5)cc24)CCCCC3)C1	< 6.30	> 10 µM	> 3 µM	> 10 µM	> 10 µM	4.86	6.14	–	–	–	< 6.30	–	–
N[C@H]1CCN(c2c3c(nc4ccc(-c5ccnc(NC(=O)C6CC6)c5)cc24)CCCCC3)C1	8.26	0.018 µM	0.033 µM	0.028 µM	0.076 µM	4.51	5.71	14200	894	3	8.66	–	–
N[C@H]1CCN(c2c3c(nc4ccc(-c5ccnc(C(=O)NC6CC6)c5)cc24)CCCCC3)C1	< 6.30	4.74 µM	9.12 µM	> 10 µM	10.4 µM	5.25	5.30	–	–	–	< 6.30	–	–
CN1CCN(S(=O)(=O)c2ccc(Nc3cc(-c4ccc5nc6c(c(N7CC[C@H](N)C7)c5c4)CCCCC6)ccn3)cc2)CC1	–	2 µM	3.23 µM	3.21 µM	2.73 µM	4.62	5.36	–	–	–	–	57.2%	85%
N[C@H]1CCN(c2c3c(nc4ccc(-c5ccnc(NC(=O)C6CC6)c5)cc24)CCC3)C1	6.60	0.073 µM	0.251 µM	0.191 µM	0.203 µM	5.65	5.22	671	1790	75	8.47	–	–
N[C@H]1CCN(c2c3c(nc4ccc(-c5ccnc(NC(=O)C6CC6)c5)cc24)-c2ccccc2CCC3)C1	< 6.30	2.67 µM	3.05 µM	1.9 µM	2.21 µM	< 4.30	5.48	–	28	–	6.95	–	–
N[C@H]1CCN(c2c3c(nc4ccc(-c5ccnc(Nc6cccc(S(=O)(=O)N7CCOCC7)c6)c5)cc24)CCCCC3)C1	< 6.30	2 µM	3.2 µM	3.3 µM	3.44 µM	4.54	5.70	–	–	–	–	57.5%	–
N[C@H]1CCN(c2c3c(nc4ccc(-c5ccnc(NC(=O)C6CC6)c5)cc24)CCCCCC3)C1	8.53	0.014 µM	0.034 µM	0.052 µM	0.065 µM	4.76	–	9210	–	2	–	–	–
N[C@H]1CCN(c2c3c(nc4ccc(-c5ccnc(NC(=O)C6CCC6)c5)cc24)CCC3)C1	7.07	0.138 µM	0.456 µM	0.195 µM	0.333 µM	5.75	5.50	275	497	13	8.19	–	–
CS(=O)(=O)c1ccc(Nc2cc(-c3ccc4nc5c(c(N6CC[C@H](N)C6)c4c3)CCCCC5)ccn2)cc1	–	3.01 µM	3.52 µM	2.78 µM	3.16 µM	4.62	5.52	–	–	–	–	80.2%	90.1%
